Measured values from publication PMC6143625, “A high throughput screen for next-generation leads targeting malaria parasite transmission” (Nature Communications, 2018).

Assays:
[1] = tested on: P. falciparum stage V male gametocytes (male gamete formation); assay: P. falciparum dual gamete formation assay (Pf DGFA), male readout (exflagellation), 48 h carry-over format; format: cell-based, Plasmodium falciparum NF54; settings: primary screen, 2 uM, 48 h incubation, single replicate
Protocol: (§1) P. falciparum NF54 strain (originally isolated from an imported malaria case in the Netherlands in the 1980s; BEI Resources, cat. no. MRA-1000) asexual and sexual stages culture was performed as previously described. Gametocyte cultures were initiated at 1% asexual ring stage parasitaemia and 4% haematocrit in 40 ml final volume. To induce gametocyte production, complete culture medium (CM) (RPMI 1640 supplemented with 25 mM HEPES, 50 µg ml^−1 hypoxanthine, 2 g l^−1 NaHCO3 and 10% pooled human male type A+ serum) was replaced daily for 14 days without fresh erythrocyte addition. Human serum was obtained from Interstate Blood Bank, A^+ serotype; no aspirin 2 h before drawing and no antimalarials 2 weeks before drawing. On day 14 after culture induction, gametocyte production was assessed by thin smear and Giemsa staining, and exflagellation accurately counted in a haemocytometer. Gametocyte cultures with >0.2% exflagellation (compared to total erythrocyte cell number) were deemed acceptable for use in the Pf DGFA. Note, all human biological samples were sourced ethically and their research use was in accord with the terms of the informed consents under an IRB/EC approved protocol.
(§2) In screening mode, the assay was performed as described in Delves et al.[35] with a mean Z′ factor of 0.56 ± 0.14 (SD) (male) and 0.71 ± 0.17 (SD) (female). Pooled mature gametocyte cultures with the capacity to yield >0.2% exflagellation (of total cells) were diluted in CM to 14 million cells per ml and so that 700,000 cells were dispensed in 50 µl into each well of the warmed 384-well screening plates. Parasites were incubated in the plates with compounds for 48 h in a humidified chamber under 92%N2/5% CO2/3% O2 gas mix before gamete formation was triggered by addition of 10 µl per well ookinete medium (RPMI 1640 supplemented with 25 mM HEPES, 50 µg ml^−1 hypoxanthine, 2 g l^−1 NaHCO3, 100 µM xanthurenic acid) containing 0.5 µg ml^−1 anti-Pfs25 clone 4B7 (BEI Resources, cat. no. MRA-315) conjugated to the fluorophore Cy3 (GE Healthcare), and also by cooling the plate at 4 °C for 4 min and then a further 5 min at 28 °C. Exflagellation was recorded immediately by brightfield microscopy using a Nikon Ti-E widefield microscope at ×4 objective, ×1.5 zoom, recording a 10-frame video time-lapse over 2 s for each well. Afterwards, plates were incubated in the dark at 28 °C for a further 24 h to allow female gametes to maximally express Pfs25 on their surface. Female gamete formation was recorded by single-image fluorescence microscopy using the same microscope and magnification as above. Exflagellation and female gamete formation were quantified by specific algorithms designed with the open-source ICY Image Analysis software.
(§3) Assay performance statistics, such as signal to background ratio, Z′ and robust 3×SD activity cut-off were calculated using templates in ActivityBase XE (IDBS, Guilford, Surrey, UK). Hit population analysis and visualisation were conducted using Spotfire DecisionSite (Spotfire, Inc., Somerville, Massachusetts). The pIC50 (−log IC50) values were obtained using the ActivityBase XE nonlinear regression function in the full curve analysis bundle. In screening mode, the Pf DGFA achieved a mean Z′ factor of 0.56 ± 0.14 (SD) (male) and 0.71 ± 0.17 (SD) (female).

[2] = tested on: P. falciparum stage V female gametocytes (female gamete formation); assay: P. falciparum dual gamete formation assay (Pf DGFA), female readout (Pfs25 expression), 48 h carry-over format; format: cell-based, Plasmodium falciparum NF54; settings: primary screen, 2 uM, 48 h incubation, single replicate
Protocol: as §1
as §2, with “Parasites were incubated in the plates with compounds for 48 h in a humidified chamber under” left out
as §3

## Cc1cc2c(cc1NC(N)=O)OCO2 [DDD01037848]
[1]
  %Inhibition Male @2uM: <30%
[2]
  %Inhibition Female @2uM: 32.47%

## O=C(NCc1ccco1)c1[nH]nc2c1CS(=O)(=O)CC2 [DDD01037866]
[1]
  %Inhibition Male @2uM: 48.15%
[2]
  %Inhibition Female @2uM: <30%

## CCn1nc(C)c2nc(C)nc(NCCc3ccccc3)c21 [DDD01038123]
[1]
  %Inhibition Male @2uM: <30%
[2]
  %Inhibition Female @2uM: 30.36%

## CCn1cc(CN2CCN(C(=O)c3cc(C)c(C)s3)CC2)c(C)n1 [DDD01038373]
[1]
  %Inhibition Male @2uM: <30%
[2]
  %Inhibition Female @2uM: 36.25%

## CCN1CCN(C(=O)C2CC(=O)N(c3cnn(C(C)C)c3)C2)CC1 (stereo not drawn) [DDD01038633]
[1]
  %Inhibition Male @2uM: 42.61%
[2]
  %Inhibition Female @2uM: <30%

## Cc1ccc2c(c1)c(C)cc(=O)n2CCCN [DDD01038649]
[1]
  %Inhibition Male @2uM: <30%
[2]
  %Inhibition Female @2uM: 33.62%

## COc1ccc(NC(=O)c2cnc(C3CCN(C)CC3)nc2C)cc1 [DDD01056828]
[1]
  %Inhibition Male @2uM: 33.07%
[2]
  %Inhibition Female @2uM: <30%

## CN(C)C(=O)CN1CCC(c2c(C(N)=O)sc3ncccc23)C1 (stereo not drawn) [DDD01056829]
[1]
  %Inhibition Male @2uM: 34.06%
[2]
  %Inhibition Female @2uM: <30%

## CN1CC2(CCC(C(=O)N3CCOCC3)CC2)Oc2ccccc2C1=O (stereo not drawn) [DDD01056893]
[1]
  %Inhibition Male @2uM: 30.45%
[2]
  %Inhibition Female @2uM: <30%

## O=C(NC1CC1)[C@H]1CN(Cc2ccccc2)C[C@@H]1C(=O)c1ccccc1 [DDD01056910]
[1]
  %Inhibition Male @2uM: 31.76%
[2]
  %Inhibition Female @2uM: <30%

## CS(=O)(=O)N1CCCCC1c1ccc(Nc2cnccn2)nc1 (stereo not drawn) [DDD01057097]
[1]
  %Inhibition Male @2uM: 34.23%
[2]
  %Inhibition Female @2uM: <30%

## CN1CCOC(C)(C(=O)Nc2nccs2)C1 (stereo not drawn) [DDD01057393]
[1]
  %Inhibition Male @2uM: 32.46%
[2]
  %Inhibition Female @2uM: <30%

## O=C(Cn1cnc2cc3c(cc21)OCCCO3)NCCc1ccccc1 [DDD01057871]
[1]
  %Inhibition Male @2uM: <30%
[2]
  %Inhibition Female @2uM: 36.66%

## COc1cccc(CC(=O)N2CCCC2c2nc(=O)c(C)c(C)[nH]2)c1 (stereo not drawn) [DDD01059601]
[1]
  %Inhibition Male @2uM: <30%
[2]
  %Inhibition Female @2uM: 33.02%

## CNc1cncc(C2CCCN2c2cc(C)ncn2)n1 (stereo not drawn) [DDD01059901]
[1]
  %Inhibition Male @2uM: 44.44%
[2]
  %Inhibition Female @2uM: <30%

## CC(=O)N1CCCC(c2ccccn2)C1 (stereo not drawn) [DDD01059909]
[1]
  %Inhibition Male @2uM: 30.93%
[2]
  %Inhibition Female @2uM: <30%

## CN(C)C(=O)CN1CCC(c2cccc(Cc3ccc(F)cc3)n2)CC1 [DDD01060228]
[1]
  %Inhibition Male @2uM: 31.41%
[2]
  %Inhibition Female @2uM: <30%

## CC(C)CC(=O)N1CCN(Cc2cc(-c3ccncc3)nn2C)CC1 [DDD01060230]
[1]
  %Inhibition Male @2uM: <30%
[2]
  %Inhibition Female @2uM: 78.93%

## OC1(Cn2ccc3ncccc32)CCN(Cc2cc(F)cc(F)c2)CC1 [DDD01060275]
[1]
  %Inhibition Male @2uM: 30.37%
[2]
  %Inhibition Female @2uM: <30%

## Cc1cncc(C(=O)N[C@@H]2CC[C@@H](N3CCOCC3)[C@@H]2O)c1 [DDD01060350]
[1]
  %Inhibition Male @2uM: <30%
[2]
  %Inhibition Female @2uM: 35.23%

## CC(=O)N1CCN([C@@H]2CC[C@@H](NC(=O)c3cc(C)cs3)[C@H]2O)CC1 [DDD01060352]
[1]
  %Inhibition Male @2uM: <30%
[2]
  %Inhibition Female @2uM: 32.18%

## CC(C)(N)C(=O)N1CCCC1c1cncc(Oc2ccccc2)n1 (stereo not drawn) [DDD01060400]
[1]
  %Inhibition Male @2uM: <30%
[2]
  %Inhibition Female @2uM: 49.04%

## Cc1nc2ccc(C(=O)N3CCn4c(nnc4C4CC4)C3)cc2nc1C [DDD01060815]
[1]
  %Inhibition Male @2uM: <30%
[2]
  %Inhibition Female @2uM: 31.88%

## O=C(C1CCCCC1)N1CCC(c2[nH]nc3nccnc23)CC1 [DDD01060967]
[1]
  %Inhibition Male @2uM: <30%
[2]
  %Inhibition Female @2uM: 38.46%

## O=C(c1cn[nH]n1)N1CCCC1C1CCCCC1 (stereo not drawn) [DDD01061770]
[1]
  %Inhibition Male @2uM: <30%
[2]
  %Inhibition Female @2uM: 30.76%

## Cc1noc(C)c1CNC1CCN(c2ccccc2OC(F)F)C1 (stereo not drawn) [DDD01061833]
[1]
  %Inhibition Male @2uM: <30%
[2]
  %Inhibition Female @2uM: 39.11%

## CN(C)c1ccc(CNC(=O)Nc2ccc(S(=O)(=O)C(F)F)cc2)cc1 [DDD01062359]
[1]
  %Inhibition Male @2uM: <30%
[2]
  %Inhibition Female @2uM: 41.45%

## Cc1ccc(OCCCC(=O)Nc2nonc2C)cc1C [DDD01063175]
[1]
  %Inhibition Male @2uM: <30%
[2]
  %Inhibition Female @2uM: 30.83%

## Cc1noc(C(C)Nc2ccc3oc(C)nc3c2)n1 (stereo not drawn) [DDD01064591]
[1]
  %Inhibition Male @2uM: <30%
[2]
  %Inhibition Female @2uM: 37.30%

## CC1CN(C(=O)c2cnn(-c3ccccn3)c2C(C)C)CC(C)(C)O1 (stereo not drawn) [DDD01064602]
[1]
  %Inhibition Male @2uM: <30%
[2]
  %Inhibition Female @2uM: 40.46%

## CCOc1nnc(CN2CCN(CCOC)C(C)C2)s1 (stereo not drawn) [DDD01065018]
[1]
  %Inhibition Male @2uM: 30.92%
[2]
  %Inhibition Female @2uM: <30%

## c1cc(NCc2ccsc2)cc(-c2nnc[nH]2)c1 [DDD01065418]
[1]
  %Inhibition Male @2uM: 31.81%
[2]
  %Inhibition Female @2uM: <30%

## Cc1nc(C)c(C(=O)N2CCc3c(Cl)cccc32)o1 [DDD01065842]
[1]
  %Inhibition Male @2uM: 32.65%
[2]
  %Inhibition Female @2uM: <30%

## Cc1[nH]c(C2(N)CCCCC2)nc(=O)c1C [DDD01066687]
[1]
  %Inhibition Male @2uM: <30%
[2]
  %Inhibition Female @2uM: 32.19%

## Cc1ccc(N2CCCC(N(C)Cc3cc(C)on3)C2)nn1 (stereo not drawn) [DDD01069945]
[1]
  %Inhibition Male @2uM: <30%
[2]
  %Inhibition Female @2uM: 39.02%

## COc1cc(CNC(C)c2cccc(Cl)c2)cc(OC)c1OC (stereo not drawn) [DDD01069994]
[1]
  %Inhibition Male @2uM: 35.70%
[2]
  %Inhibition Female @2uM: <30%

## COCc1noc(C2(c3cccc(Cl)c3)CCOCC2)n1 [DDD01070409]
[1]
  %Inhibition Male @2uM: 71.92%
[2]
  %Inhibition Female @2uM: <30%

## O=C(CNc1cc2c(cc1Cl)OCCO2)NCC(F)(F)F [DDD01070591]
[1]
  %Inhibition Male @2uM: <30%
[2]
  %Inhibition Female @2uM: 39.90%

## CCS(=O)(=O)NC1CCCN(c2ccc(F)cc2C)C1=O (stereo not drawn) [DDD01074148]
[1]
  %Inhibition Male @2uM: <30%
[2]
  %Inhibition Female @2uM: 33.10%
